The source of these data is patent publication US10689331B2, “IDO inhibitors” (Bristol-Myers Squibb Company, priority 2015, dated 2020).

For this assay, the target named is T1, human IDO1 (Homo sapiens, UniProt P14902).
T1 construct: expressed in transfected cells
Description: HEK Human IDO-1 inhibition assay (kynurenine readout, Ehrlich reagent, absorbance 490 nm). In kind it is cell-based. The following applies: human IDO1/HEK293 cells, incubated 20 hours with compound; 500 nM reference standard = 100% inhibition. Here is the method:
HEK293 cells were transfected with a pCDNA-based mammalian expression vector harboring human IDO1 cDNA (NM 002164.2) by electroporation. They were cultured in medium (DMEM with 10% FBS) containing 1 mg/ml G418 for two weeks. Clones of HEK293 cells that stably expressed human IDO1 protein were selected and expanded for IDO inhibition assay.
The human IDO1/HEK293 cells were seeded at 10,000 cells per 50 uL per well with RPMI/phenol red free media contains 10% FBS in a 384-well black wall clear bottom tissue culture plate (Matrix Technologies LLC) 100 nL of certain concentration of compound was then added to each well using ECHO liquid handling systems. The cells were incubated for 20 hours in 37° C. incubator with 5% CO2.
The compound treatments were stopped by adding Trichloroacetic Acid (Sigma-Aldrich) to a final concentration at 0.2%. The cell plate was further incubated at 50° C. for 30 minute. The equal volume supernatant (20 uL) and 0.2% (w/v) Ehrlich reagent (4-dimethylaminobenzaldehyde, Sigma-Aldrich) in glacial acetic acid were mixed in a new clear bottom 384-well plate. This plate was then incubated at room temperature for 30 minute. The absorbance at 490 nm was measured on Envision plate reader. Compound IC50 values were calculated using the counts of 500 nM of a reference standard treatment as one hundred percent inhibition, and counts of no compound but DMSO treatment as zero percent inhibition.

T1 sequence (P14902 whole entry): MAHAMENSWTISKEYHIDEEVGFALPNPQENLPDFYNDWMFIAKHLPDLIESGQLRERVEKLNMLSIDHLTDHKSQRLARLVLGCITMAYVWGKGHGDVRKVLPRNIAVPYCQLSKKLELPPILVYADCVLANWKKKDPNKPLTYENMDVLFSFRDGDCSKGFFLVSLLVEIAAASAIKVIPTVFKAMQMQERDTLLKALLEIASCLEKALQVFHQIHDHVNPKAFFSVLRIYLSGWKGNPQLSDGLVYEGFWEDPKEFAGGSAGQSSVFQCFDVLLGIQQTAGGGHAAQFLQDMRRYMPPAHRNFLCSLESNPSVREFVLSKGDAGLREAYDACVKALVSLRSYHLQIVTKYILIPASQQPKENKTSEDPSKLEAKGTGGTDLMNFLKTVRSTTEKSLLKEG

In the case of `CC(C)CN(c1ccc(OCC(=O)O)cc1NC(=O)Nc1ccc(Cl)cc1F)C1CCOCC1` [Example 151, 2-(3-(3-(4-chloro-2-fluorophenyl)ureido)-4-(isobutyl(tetrahydro-2H-pyran-4-yl)amino)phenoxy)acetic acid], the IC50 is not below 100 nM. On to `CC(C)CN(c1ccc(OC(C)C(=O)O)cc1NC(=O)Nc1ccc(C#N)cc1)C1CCCCC1` (racemic) [racemic 66], for which the IC50 is not below 100 nM. `Cc1ccc(NC(=O)Nc2cc(OCC(=O)NS(=O)(=O)C3CC3)ccc2N(CC(C)C)C2CCCCC2)cc1` [Example 53, 2-(4-(cyclohexyl(isobutyl)amino)-3-(3-(p-tolyl)ureido)phenoxy)-N-(cyclopropylsulfonyl)acetamide]: the IC50 is less than 100 nM. Next, `CC(C)CN(c1ccc(OCC(=O)NS(=O)(=O)C2CC2)cc1NC(=O)Nc1ccc(Cl)cc1F)C1CCCCC1` [Example 47, 2-(3-(3-(4-chloro-2-fluorophenyl)ureido)-4-(cyclohexyl (isobutyl)amino)phenoxy)-N-(cyclopropyl-sulfonyl)acetamide]: less than 5 nM; `CC(C)CN(c1ccc(OC(C)C(=O)O)cc1Nc1nc2ccccc2o1)C1CCCCC1` (racemic) [Example 62, (±)-2-(3-(benzo[d]oxazol-2-ylamino)-4-(cyclohexyl (isobutyl)amino)phenoxy)propanoic acid]: not below 100 nM; `Cc1cc(NC(=O)Nc2cc(OC(C)C(=O)NS(=O)(=O)C3CC3)ccc2N(CC(C)C)C2CCCCC2)on1` (racemic) [Example 68]: less than 5 nM. Turning to `CC(C)CN(c1c(F)cc(OCC(=O)O)cc1NC(=O)Nc1ccc(Cl)cc1F)C1CCCCC1` [Example 104, 2-(3-(3-(4-chloro-2-fluorophenyl)ureido)-4-(cyclohexyl(isobutyl)amino)-5-fluorophenoxy)acetic acid], the IC50 is less than 5 nM. Turning to `CC(C)CN(c1ccc(OC(C)C(=O)NS(=O)(=O)C2CC2)cc1NC(=O)Cc1ccc(Cl)c(F)c1)C1CCCCC1` (racemic) [Example 79, (±)-2-(3-(2-(4-chloro-3-fluorophenyl)acetamido)-4-(cyclohexyl(isobutyl)amino)phenoxy)-N-(cyclopropylsulfonyl) propanamide], the IC50 is not below 100 nM. For the compound `Cc1ccc(NC(=O)Nc2cc(OC(C)C(=O)O)ccc2N(CC(C)C)C2CCCCC2)c(F)c1` (single isomer, unassigned) [Example 65-1, 2-(4-(cyclohexyl(isobutyl)amino)-3-(3-(2-fluoro-4-methylphenyl)ureido)phenoxy)propanoic acid], the IC50 was less than 100 nM.

As to `CC(C)CN(c1ccc(OCC(=O)O)cc1NC(=O)Nc1cc(F)ccc1F)C1CCCCC1` [Example 20, 2-(4-(cyclohexyl(isobutyl)amino)-3-(3-(2,5-difluorophenyl)ureido)phenoxy)acetic acid], the IC50 was less than 5 nM. On to `CC(C)CN(c1cc(Cl)c(OCC(=O)O)cc1NC(=O)Nc1ccc(Cl)cc1F)C1CCCCC1` [Example 119, 2-(2-chloro-5-(3-(4-chloro-2-fluorophenyl)ureido)-4-(cyclohexyl(isobutyl)amino)phenoxy)acetic acid], for which the IC50 is less than 100 nM. Consider `CCCC(Oc1ccc(N(CC(C)C)C2CCCCC2)c(NC(=O)Nc2ccc(C)cc2)c1)C(=O)O` (single isomer, unassigned) [Example 86-2, 2-(4-(cyclohexyl(isobutyl)amino)-3-(3-(p-tolyl)ureido)phenoxy)pentanoic acid], for which the IC50 is less than 5 nM.

As to `CC(C)CN(Cc1ccc(Cl)cc1)c1ccc(OCC(=O)O)cc1NC(=O)Cc1ccc(Cl)cc1F` [Example 167, 2-(3-(2-(4-chloro-2-fluorophenyl)acetamido)-4-((4-chlorobenzyl)(isobutyl)amino)phenoxy)acetic acid], the IC50 is not below 100 nM. To `Cc1ccc(NC(=O)Nc2cc(OCC(=O)O)ccc2N(CC(C)C)CC(C)C)cc1` [Example 112, 2-(4-(diisobutylamino)-3-(3-(p-tolyl)ureido)phenoxy)acetic acid] belongs not below 100 nM; to `CC(C)CN(c1ccc(OCC(=O)O)cc1NC(=O)Nc1ccc(Cl)cc1F)C1CCC(O)CC1` (stereo not shown) [Example 149, 2-(3-(3-(4-chloro-2-fluorophenyl)ureido)-4-((0-4-hydroxycyclohexyl)(isobutyl)amino)phenoxy)acetic acid], not below 100 nM; to `CC(C)CN(c1c(F)cc(OCC(=O)O)cc1NC(=O)Nc1cc(F)ccc1F)C1CCCCC1` [Example 106, 2-(4-(cyclohexyl(isobutyl)amino)-3-(3-(2,5-difluorophenyl)ureido)-5-fluorophenoxy)acetic acid], less than 5 nM. With `CCCC(Oc1ccc(N(CC(C)C)C2CCCCC2)c(NC(=O)Nc2ccc(C)cc2)c1)C(=O)O` (single isomer, unassigned) [Example 86-1, 2-(4-(cyclohexyl(isobutyl)amino)-3-(3-(p-tolyl)ureido)phenoxy)pentanoic acid], the IC50 was less than 100 nM. As for `CC(C)CN(c1ccc(OC(C)C(=O)O)cc1NC(=O)Nc1ccc(Cl)cc1F)C1CCOC1` (single isomer, unassigned) [Example 146-1, 2-(3-(3-(4-chloro-2-fluorophenyl)ureido)-4-(isobutyl(tetrahydrofuran-3-yl)amino)phenoxy)propanoic acid], the IC50 was not below 100 nM. `COc1ccc(NC(=O)Nc2cc(OC(C)C(=O)O)ccc2N(CC(C)C)C2CCCCC2)c(F)c1` (racemic) [racemic 64]: the IC50 was less than 5 nM. As to `CC(C)CN(c1ccc(OCC(=O)O)cc1NC(=O)Cc1ccc(Cl)c(F)c1)C1CCCCC1` [Example 54, 2-(3-(2-(4-chloro-3-fluorophenyl)acetamido)-4-(cyclohexyl(isobutyl)amino)phenoxy)acetic acid], the IC50 is not below 100 nM. Next, `CC(C)CN(c1cc(F)c(OCC(=O)O)cc1NC(=O)Nc1ccc(Br)cc1F)C1CCCCC1` [Example 125, 2-(5-(3-(4-bromo-2-fluorophenyl)ureido)-4-(cyclohexyl(isobutyl)amino)-2-fluorophenoxy)acetic acid]: less than 5 nM; `C=C(C)CN(c1ccc(OC(C)C(=O)O)cc1NC(=O)Nc1ccc(Cl)cc1F)C1CCOCC1` (stereo not shown) [Example 138, 2-(3-(3-(4-chloro-2-fluorophenyl)ureido)-4-((2-methylallyl)(tetrahydro-2H-pyran-4-yl)amino)phenoxy)propanoic acid]: less than 100 nM; `CC(C)CN(c1ccc(OCC(=O)NS(=O)(=O)N(C)C)cc1NC(=O)Nc1ccc(Cl)cc1F)C1CCCCC1` [Example 46, 2-(3-(3-(4-chloro-2-fluorophenyl)ureido)-4-(cyclohexyl(isobutyl)amino)phenoxy)-N—(N,N-dimethylsulfamoyl)acetamide]: less than 5 nM. In the case of `CC(C)CN(c1ccc(OCC(=O)O)cc1NC(=O)Nc1cccc(Cl)c1F)C1CCCCC1` [Example 26, 2-(3-(3-(3-chloro-2-fluorophenyl)ureido)-4-(cyclo-hexyl(isobutyl)amino)phenoxy) acetic acid], the IC50 is not below 100 nM. Regarding `Cc1ccc(NC(=O)Nc2cc(OC(C)C(=O)O)ccc2N(CC(C)C)C2CCCCC2)c(F)c1` (single isomer, unassigned) [Example 65-2, 2-(4-(cyclohexyl(isobutyl)amino)-3-(3-(2-fluoro-4-methylphenyl)ureido)phenoxy)propanoic acid], the IC50 is less than 5 nM.

Consider `CC(C)CN(c1cc(F)c(OCC(=O)O)cc1NC(=O)Nc1ccc(OC(F)(F)F)cc1)C1CCCCC1` [Example 127, 2-(4-(cyclohexyl(isobutyl)amino)-2-fluoro-5-(3-(4-(trifluoromethoxy)phenyl)ureido)phenoxy)acetic acid], for which the concentration for half-maximal inhibition (IC50) is less than 100 nM. In the case of `CCC(Oc1ccc(N(CC(C)C)C2CCCCC2)c(NC(=O)Nc2ccc(C)cc2)c1)C(=O)O` (single isomer, unassigned) [Example 82-1, 2-(4-(cyclohexyl(isobutyl)amino)-3-(3-(p-tolyl)ureido)phenoxy)butanoic acid], the IC50 was less than 5 nM. To `CCC(Oc1ccc(N(CC(C)C)C2CCCCC2)c(NC(=O)Nc2ccccc2F)c1)C(=O)O` (single isomer, unassigned) [Example 81-1, 2-(4-(cyclohexyl(isobutyl)amino)-3-(3-(2-fluorophenyl)ureido)phenoxy)butanoic acid] belongs less than 5 nM; to `CC(C)CN(c1ccc(OCC(=O)O)cc1NC(=O)Nc1ccc(C#N)cc1)C1CCCCC1` [Example 39, 2-(3-(3-(4-cyanophenyl)ureido)-4-(cyclohexyl(isobutyl)amino)phenoxy)acetic acid], not below 100 nM. As to `Cc1ccc(NC(=O)Nc2cc(OC(C)C(=O)NS(=O)(=O)C3CC3)ccc2N(CC(C)C)C2CCCCC2)cc1` (racemic) [Example 69, (±)-2-(4-(cyclohexyl(isobutyl)amino)-3-(3-(p-tolyl)ureido)phenoxy)-N-(cyclopropylsulfonyl)propanamide], the IC50 is less than 5 nM. As to `CC(C)CN(c1ccc(OCC(=O)O)cc1NC(=O)Nc1ccncc1)C1CCCCC1` [Example 5, 2-(4-(cyclohexyl(isobutyl)amino)-3-(3-(pyridin-4-yl)ureido)phenoxy)acetic acid], the 50% inhibitory concentration (IC50) is not below 100 nM.

The IC50 is the midpoint of a concentration-inhibition curve.
